Measurements from US20140328840A1, “MARKER AND TARGET FOR RESPONSIVENESS AND RESISTANCE TO CANCER AGENTS” (The Provost, Fellows, Foundation Scholars, and the Other …, priority 2011, published 2014).
One block for each compound: values may come before it.

Assays:
EGFR = test: Exogenous NmU treatment, EGFR expression; type: cell-based; conditions: 1 μM, 24-48 hours
Experimental: (§1) To assess if functional NmU receptors are expressed on cells, SKBR3 and HCC1954, (1×10^6 cells) were seeded in 25 cm^2 flask, allowed attach overnight and subsequently treated with 1 μM of NmU-25 (Bachem, Switzerland) for 24-48 hours.
(§2) Total cellular proteins (30-40 μg, depending on the specific protein's abundance; but constant for any given protein) were resolved on 6-10% SDS-PAGE and transferred to PVDF membranes (Millipore, Ireland). Primary antibodies used included EGFR (Neomarker); HER2 (Calbiochem); Akt, p-Akt (Cell Signalling); NmU-R1 (Sigma-Aldrich); NmU-R2 (LifeSpan Biosciences); β-actin (Sigma-Aldrich). Membranes were incubated with appropriate horseradish peroxidase-conjugated secondary antibodies (Cell Signalling) and proteins were visualized by chemiluminescence (Millipore). Detection was performed with a Chemidoc exposure system (Bio-Rad Laboratories). ELISA kit for NmU (Peninsula Laboratories, US), HER2 (Calbiochem, US), p-HER2, EGFR, p-EGFR (R&D Systems, US) were used according to the manufacturer's instructions.

HER2 = test: Exogenous NmU treatment, HER2 expression; type: cell-based; conditions: 1 μM, 24-48 hours; SKBR3 and HCC1954 cells
Experimental: as §1, §2

[1] = tested on: NmU mRNA in HCC1954 cells; test: Short-term drug exposure, qPCR of NmU mRNA in conditioned medium and cells; type: cell-based; conditions: 48 hours; for induced NmU mRNA in CM / induced NmU mRNA in cells: HCC1954, 0.5 μM, vs untreated control
Experimental: (§3) Conditioned medium (CM) was collected, centrifuged and filtered, as previously described (1-2), prior to NmU mRNA and protein analysis.
(§4) Total RNA was isolated from cell lines and CM using TriReagent (Sigma-Aldrich). In order to remove any potential contaminating genomic DNA, RNA was treated with DNase enzymes and minus reverse transcriptase enzyme controls verified no DNA/pseudogene contamination of starting material. cDNA was prepared from 500ng cell-derived and 4 μl CM-derived total RNA, respectively.

SKBR3-NmU cells = test: Proliferation assay, NmU cDNA- versus mock-transfected cells; type: cell-based; conditions: SKBR3-NmU vs SKBR3-mock
Experimental: (§5) Two siRNAs, designated NmU-1 (SEQ ID NO: 3; 5′-[…]-3′) and NmU-2 (SEQ ID NO: 4; 5′-[…]-3′) (s225456 and s21351, respectively, Ambion, UK), (30 nM) were used to target NmU. Scrambled siRNA (SCR) (AM4611, Ambion, UK) was used as negative control. Transient transfections were harvested 72 hours post-transfection for RNA and protein extraction. NmU full-length cDNA was sub-cloned from pOTB7 (clone ID3502168, Open Biosystems, Ireland) by PCR into pcDNA 3.1(+) zeo-plasmid vector (Invitrogen, Ireland). The construct was verified by DNA sequencing. Mock controls used were of pcDNA3.1(+) plasmid lacking NmU cDNA. Lipofectamine 2000 (Invitrogen, Ireland) was used for transfection following the manufacturer's instructions. Stable transfectants were established by selecting with zeocin (50 μg/ml and 300 μg/ml for HCC1954 and SKBR3 transfected cells, respectively; based on initial assessment of the toxicity of zeocin on these cells) (Invitrogen, Ireland).
(§6) Cells with acquired-resistance compared to aged-parent cells and NmU cDNA-versus mock-transfected cells (HCC1954 variants, 2×10^3 cells/well; SKBR3 variants, 5×10^3 cells/well) were seeded for 24 hours prior to drug additions. […] Five days later, acid phosphatase assay was performed as previously detailed (3).

HCC1954-NmU cells = test: as above; type: cell-based; conditions: HCC1954-NmU vs HCC1954-mock
Experimental: as §5, §6

[2] = tested on: SKBR3-LR, HCC1954-LR, T47D and MDA-MB-361 cells; test: Effects of NmU siRNAs with HER-targeted drugs on proliferation (acid phosphatase); type: cell-based
Experimental: as §5
(§7) To investigate if knock-down of NmU affected response to HER-targeting, cell lines with acquired Lapatinib-resistance (SKBR3-LR, HCC1954-LR) and innately unresponsive (MDA-MB-361, T47D) were assessed. […] Similarly, fixed concentrations of Neratinib (1 μM) and Afatinib (0.5 μM) were used. These were cultured for 72 hours and subsequently assessed using acid phosphate analysis.

HCC1954 cells [3] = test: Resistance to HER-targeted drugs after exogenous NmU treatment; type: cell-based; conditions: HCC1954, exogenous NmU (NmU-25) 48 hours; all drugs
Experimental: as §1

MDA-MB-361 = conditions: cited from earlier work
NmU mRNA in SKBR3 cells = test: Short-term drug exposure, qPCR of NmU mRNA in conditioned medium and cells; type: cell-based; conditions: SKBR3, 1 μM, 48 hours, vs untreated control CM
Experimental: as §3, §4

SKBR3-Ag cells = test: Proliferation assay (acid phosphatase), aged parent SKBR3; type: cell-based; conditions: Homo sapiens, SK-BR-3, 120 h, read-out: concentration that inhibits 50% of proliferation (IC50), five days
Experimental: (§8) SKBR3, HCC1954, MDA-MB-361, T47D cells, obtained from ATCC, were cultured in RPMI-1640 (Sigma-Aldrich) with 10% FCS (PAA) and 1% L-glutamine. […] Lapatinib-resistant SKBR3 and HCC1954 cells (SKBR3-LR, HCC1954-LR) were established by continuously exposing cells to Lapatinib, starting with 5 nM and incrementally increasing to 250 nM over 6 months. Neratinib-resistant SKBR3 and HCC1954 cells (SKBR3-NR, HCC1954-NR) resulted from continuously exposing cells to Neratinib, starting with 10 nM and incrementally increasing to 250 nM over 6 months.
as §6

HCC1954-Ag cells = test: Proliferation assay (acid phosphatase), aged parent HCC1954; type: cell-based; conditions: Homo sapiens, 120 h, read-out: concentration that inhibits 50% of proliferation (IC50), five days
Experimental: as §8, §6

MDA-MB-361 cells = test: Proliferation, previously determined IC50; type: cell-based; conditions: Homo sapiens; MDA-MB-361, previously determined; read-out: approximate IC50 concentration
Experimental: as §7

T47D cells = test: Proliferation, previously determined IC50; type: cell-based; conditions: Homo sapiens, read-out: approximate IC50 concentration
Experimental: as §7

SKBR3 cells = conditions: cited from earlier work
HCC1954 cells [4] = conditions: cited from earlier work
HCC1954-LR cells = test: Proliferation assay (acid phosphatase), Lapatinib-resistant HCC1954; type: cell-based
Experimental: as §8, §6

T47D = conditions: cited from earlier work
SKBR3-LR cells = test: Proliferation assay (acid phosphatase), Lapatinib-resistant SKBR3; type: cell-based
Experimental: as §8, §6

Compound: NmU-25: exogenous NeuromedinU 25 amino acid active peptide (Bachem) (FRVDEEFQSPFASQSRGYFLFRPRN)
expression of EGFR protein (EGFR; SKBR3 and HCC1954 cells): induced expression
pEGFR (EGFR; SKBR3 cells): induced expression
expression of HER2 protein (HER2): induced expression

Compound: CCOc1cc2ncc(C#N)c(Nc3ccc(OCc4ccccn4)c(Cl)c3)c2cc1NC(=O)/C=C/CN(C)C [Neratinib]
induced NmU mRNA in CM [1]: 3.6±1 fold
induced NmU mRNA in cells [1]: 3.6±0.54 fold
anti-proliferative effects in NmU-transfected compared to mock-transfected cells (SKBR3-NmU cells): significantly compromised
anti-proliferative effects in NmU-transfected compared to mock-transfected cells (HCC1954-NmU cells): significantly compromised
inhibition at 1 µM ([2]; 72 h, read-out: further inhibition of growth with NmU knock-down): 19 to 58%
level of resistance induced by exogenous NmU (HCC1954 cells [3]): 1.1 fold

Compound: CN(C)C/C=C/C(=O)Nc1cc2c(Nc3ccc(F)c(Cl)c3)ncnc2cc1O[C@H]1CCOC1 [Afatinib]
induced NmU mRNA in CM [1]: 3.3±0.49 fold
induced NmU mRNA in cells [1]: 3±0.38 fold
inhibition at 0.5 µM ([2]; 0.5 μM, 72 hours, NmU-1/NmU-2 siRNA vs SCR, range over cell lines and siRNAs, read-out: further inhibition of growth with NmU knock-down): 18 to 47%
level of resistance induced by exogenous NmU (HCC1954 cells [3]): 1.1 fold

IC50 (SKBR3-Ag cells): 0.09 µM
IC50 (HCC1954-Ag cells): 0.3 µM
IC50 (MDA-MB-361 cells): ~1 µM
IC50 (T47D cells): ~5 µM
IC50 (HCC1954-LR cells; Homo sapiens, HCC1954, 120 h, read-out: concentration that inhibits 50% of proliferation (IC50), HCC1954-LR, five days): ~5 µM
IC50 (SKBR3-LR cells; Homo sapiens, SK-BR-3, 120 h, read-out: concentration that inhibits 50% of proliferation (IC50), SKBR3-LR, five days): ~3 µM
Compound: CS(=O)(=O)CCNCc1ccc(-c2ccc3ncnc(Nc4ccc(OCc5cccc(F)c5)c(Cl)c4)c3c2)o1 [Lapatinib]
innate sensitivity/resistance (MDA-MB-361): resistant
levels of NmU mRNA detectable in CM ([1]; HCC1954, 1 μM, vs untreated control CM): significantly higher
levels of NmU mRNA detectable in CM (NmU mRNA in SKBR3 cells): significantly higher
innate sensitivity/resistance (SKBR3 cells): sensitive
innate sensitivity/resistance (HCC1954 cells [4]): sensitive
fold resistance (HCC1954-LR cells; HCC1954-LR compared to HCC1954-Ag): 19.1±2.8 fold
innate sensitivity/resistance (T47D): unresponsive
anti-proliferative effects in NmU-transfected compared to mock-transfected cells (SKBR3-NmU cells): significantly compromised
anti-proliferative effects in NmU-transfected compared to mock-transfected cells (HCC1954-NmU cells): significantly compromised
further inhibition of proliferation with NmU knock-down ([2]; drug at IC50 concentration, 72 hours, NmU-1/NmU-2 siRNA vs SCR, range over cell lines and siRNAs): 12-49%
level of resistance induced by exogenous NmU (HCC1954 cells [3]): 1.1 fold
fold resistance (SKBR3-LR cells; SKBR3-LR in relation to SKBR3-Ag): 29.8±2.2 fold
